pIC50: −log10 of the molar value. Read-outs that look alike come from different tables or passages of the source.
Experiments:
HSP72 in U2OS cells = assay: Cell-based ELISA (Cellisa) assay, U2OS cells: inhibition of 17-AAG-induced HSP72; settings: U2OS cells (Examples 1-168)
U2OS cells = assay: Titre Blue cell viability assay, U2OS cells; format: cell-based

pIC50 (HSP72 in U2OS cells)	pIC50 (U2OS cells)	Molecule	pIC50 (HSP72 in U2OS cells; Homo sapiens)	pIC50 (U2OS cells; Homo sapiens, U2OS)
		Cc1ccc(NC(=O)c2ccc3c(c2)OCCO3)cc1NC(=O)c1ccc2nc(N(C)CCC(=O)O)ccc2c1 [Example 163, 3-((6-((5-(2,3-dihydrobenzo[b][1,4]dioxine-6-carboxamido)-2-methylphenyl)carbamoyl)quinolin-2-yl)(methyl)amino)propanoic acid]	5.95	5.73
8.30	9.00	N-(5-amino-2-((dimethylamino)methyl)phenyl)-2-methylquinoline-6-carboxamide [Example 165]		
		Cc1ccc(NC(=O)c2ccc3c(c2)OCCO3)cc1NC(=O)c1ccc2occc2c1 [Example 17, N-(3-(benzofuran-5-carboxamido)-4-methylphenyl)-2,3-dihydrobenzo[b][1,4]dioxine-6-carboxamide]	7.01	7.14
		COc1cc(C(=O)Nc2cc(NC(=O)c3ccc4c(c3)OCCO4)ccc2C)ccc1Br [Example 41, N-(3-(4-bromo-3-methoxybenzamido)-4-methylphenyl)-2,3-dihydrobenzo[b][1,4]dioxine-6-carboxamide]	6.98	6.81
		COCc1ccc2cc(C(=O)Nc3cc(NC(=O)c4ccc5c(c4)OCCO5)ccc3C)ccc2n1 [Example 137, N-(5-(2,3-dihydrobenzo[b][1,4]dioxine-6-carboxamido)-2-methylphenyl)-2-(methoxymethyl)quinoline-6-carboxamide]	7.82	7.59
		Cc1cc2cc(C(=O)Nc3cc(NC(=O)c4ccc5c(c4)OCCO5)ccc3C)cnc2[nH]1 [Example 99, N-(5-(2,3-dihydrobenzo[b][1,4]dioxine-6-carboxamido)-2-methylphenyl)-2-methyl-1H-pyrrolo[2,3-b]pyridine-5-carboxamide]	7.38	7.21
		Cc1ccc(NC(=O)c2ccc3c(c2)OCCO3)cc1NC(=O)c1ccc2nc(OCCN3CCOCC3)ccc2c1 [Example 66, N-(5-(2,3-dihydrobenzo[b][1,4]dioxine-6-carboxamido)-2-methylphenyl)-2-(2-morpholinoethoxy)quinoline-6-carboxamide]	7.52	7.40
		Cc1ccc(NC(=O)c2ccc3c(c2)OCCO3)cc1NC(=O)c1cnc2[nH]cnc2c1 [Example 92, N-(5-(2,3-dihydrobenzo[b][1,4]dioxine-6-carboxamido)-2-methylphenyl)-3H-imidazo[4,5-b]pyridine-6-carboxamide]	5.36	5.48
		Cc1ccc(NC(=O)c2ccc3c(c2)OCCO3)cc1NC(=O)c1cnc2ccccc2c1 [Example 47, N-(5-(2,3-dihydrobenzo[b][1,4]dioxine-6-carboxamido)-2-methylphenyl)quinoline-3-carboxamide]	8.40	7.92
		Cc1ccc(NC(=O)c2ccc3c(c2)OCCO3)cc1NC(=O)c1ccc2c(c1)CCCN2C [Example 143, N-(5-(2,3-dihydrobenzo[b][1,4]dioxine-6-carboxamido)-2-methylphenyl)-1-methyl-1,2,3,4-tetrahydroquinoline-6-carboxamide]	7.26	7.59

Source: US9701664B2, “Fused 1,4-dihydrodioxin derivatives as inhibitors of heat shock transcription factor 1” (Cancer Research Technology Limited, priority 2013, dated 2017)
